Results published in US9730445B2, “Herbicidal compositions comprising 4-amino-3-chloro-5-fluoro-6-(4-chloro-2-fluoro-3-methoxyphenyl) pyridine-2-carboxylic acid or a derivative thereof and fungicides” (DOW AGROSCIENCES LLC, priority 2013, dated 2017).

Tests used:
Test in all cases: Postemergence foliar-applied weed control, direct-seeded rice (greenhouse)
ECHCG = type: in vivo, Echinochloa crus-galli (L.) P. Beauv. (barnyardgrass); conditions: r9-11 ester 8/16/32 g ae/ha alone, r12-14 hexaconazole 25/50/100 g ai/ha alone, r15-23 ester 8/16/32 at each of 25, 50, 100
Protocol: (§1) Seeds or nutlets of the desired test plant species were planted in a soil matrix prepared by mixing aloam or sandy loam soil (e.g., 28.6 percent silt, 18.8 percent clay, and 52.6 percent sand, with a pH of about 5.8 and an organic matter content of about 1.8 percent) and calcareous grit in an 80 to 20 ratio. The soil matrix was contained in plastic pots with a volume of 1 quart and a surface area of 83.6 square centimeters (cm^2). […] The plants were grown for 8-22 days in a greenhouse with an approximate 14 hour (h) photoperiod which was maintained at about 29° C. during the day and 26° C. during the night. Nutrients (Peters Excel® 15-5-15 5-Ca 2-Mg and iron chelate) were applied in the irrigation solution as needed and water was added on a regular basis. Supplemental lighting was provided with overhead metal halide 1000-Watt lamps as necessary. The plants were employed for testing when they reached the first through fourth true leaf stage.
(§2) Treatments consisted of the acid or esters of 4-amino-3-chloro-5-fluoro-6-(4-chloro-2-fluoro-3-methoxy-phenyl)pyridine-2-carboxylic acid (Compound A), each formulated as an SC (suspension concentrate), and various fungicidal components alone and in combination. Forms of compound A were applied on an acid equivalent basis.
(§3) For treatments comprised of formulated compounds, measured amounts of compounds were placed individually in 25 mL glass vials and diluted in a volume of 1.25% volume per volume (v/v) Agri-Dex® crop oil concentrate to obtain 12× stock solutions. […] Application solutions were prepared by adding an appropriate amount of each stock solution (e.g., 1 mL) and diluted to the appropriate final concentrations with the addition of […] of an aqueous mixture of 1.25% (v/v) crop oil concentrate so that the final spray solutions contained 1.25+/−0.05% (v/v) crop oil concentrate.
(§4) For treatments comprised of technical compounds, weighed amounts can be placed individually in 25 mL glass vials and dissolved in a volume of 97:3 volume per volume (v/v) acetone/dimethyl sulfoxide (DMSO) to obtain 12× stock solutions. […] When technical materials are used, the concentrated stock solutions can be added to the spray solutions so that the final acetone and DMSO concentrations of the application solutions are 16.2% and 0.5%, respectively.
(§5) As required, additional water and/or 97:3 v/v acetone/DMSO was added to individual application solutions so that the final acetone and DMSO concentrations of the application solutions being compared were 8.1% and 0.25%, respectively
(§6) All stock solutions and applications solutions were visually inspected for compound compatibility prior to application. Spray solutions were applied to the plant material with an overhead Mandel track sprayer equipped with 8002E nozzles calibrated to deliver 187 L/ha over an application area of 0.503 square meters (m^2) at a spray height of 18 to 20 inches (46 to 50 cm) above average plant canopy height. Control plants were sprayed in the same manner with the solvent blank.
(§7) The treated plants and control plants were placed in a greenhouse as described above and watered by sub-irrigation to prevent wash-off of the test compounds. After approximately 3 weeks, the condition of the test plants as compared with that of the untreated plants was determined visually and scored on a scale of 0 to 100 percent where 0 corresponds to no injury or growth inhibition and 100 corresponds to complete kill.
(§8) Colby's equation was used to determine the herbicidal effects expected from the mixtures (Colby, S. R. Calculation of the synergistic and antagonistic response of herbicide combinations. Weeds 1967, 15, 20-22.).
(§9) The following equation was used to calculate the expected activity of mixtures containing two active ingredients, A and B: Expected=A+B−(A×B/100)

BRAPP = type: in vivo; conditions: 21 DAA, r29-30 ester 8/16 g ae/ha alone, r31-33 hexaconazole 25/50/100 g ai/ha alone, r34-39 ester 8/16 at each of 25, 50, 100
From the text: (§10) Seeds or nutlets of the desired test plant species were planted in a soil matrix prepared by mixing aloam or sandy loam soil (e.g., 28.6 percent silt, 18.8 percent clay, and 52.6 percent sand, with a pH of about 5.8 and an organic matter content of about 1.8 percent) and calcareous grit in an 80 to 20 ratio. The soil matrix was contained in plastic pots with a volume of 1 quart and a surface area of 83.6 square centimeters (cm^2). When required to ensure good germination and healthy plants, a fungicide treatment and/or other chemical or physical treatment was applied. The plants were grown for 8-22 days in a greenhouse with an approximate 14 hour (h) photoperiod which was maintained at about 29° C. during the day and 26° C. during the night. Nutrients (Peters Excel® 15-5-15 5-Ca 2-Mg and iron chelate) were applied in the irrigation solution as needed and water was added on a regular basis. Supplemental lighting was provided with overhead metal halide 1000-Watt lamps as necessary. The plants were employed for testing when they reached the first through fourth true leaf stage.
as §2
(§11) Treatment requirements were calculated based upon the rates being tested, the concentration of active ingredient or acid equivalent in the formulation and a 12 milliliter (mL) application volume at a rate of 187 liters per hectare (L/ha).
as §3, §4, §5, §6
as §7, with “kill. […]” for “kill.”

CYPIR = type: in vivo, Cyperus iria L. (rice flatsedge); conditions: 21 DAA
Protocol: as §1, §2, §3, §4, §5, §6, §7, §8, §9

ECHCO = type: in vivo, Echinochloa colonum (L.) LINK (junglerice); conditions: 21 DAA, r9-11 ester 8/16/32 g ae/ha alone, r12-14 hexaconazole 25/50/100 g ai/ha alone, r15-23 ester 8/16/32 at each of 25, 50, 100
From the text: as §10, §2, §11, §3, §4, §5, §6
as §7, with “kill. […]” for “kill.”

IPOHE = type: in vivo, Ipomoea hederacea (L.) Jacq. (ivyleaf morningglory); conditions: r29-30 ester 8/16 g ae/ha alone, r31-33 hexaconazole 25/50/100 g ai/ha alone, r34-39 ester 8/16 at each of 25, 50, 100
Protocol: as §1, §2, §3, §4, §5, §6, §7, §8, §9

LEFCH = type: in vivo, Leptochloa chinensis (L.) Nees (Chinese sprangletop); conditions: 21 DAA
Protocol: as §1, §2, §3, §4, §5, §6, §7, §8, §9

CYPES = type: in vivo, Cyperus esculentus L. (yellow nutsedge); conditions: r10-12 ester 8/16/32 g ae/ha alone, r13-14 isoprothiolane 266/533 g ai/ha alone, r15-20 ester 8/16/32 at each of 266, 533
Protocol: as §1, §2, §3, §4, §5, §6
as §7, with “kill. […]” for “kill.”

CCCCC(O)(Cn1cncn1)c1ccc(Cl)cc1Cl (racemic) [Hexaconazole, reference compound]
0%: Visual Weed Control (%)—21 DAA ECHCG Obs (ECHCG) | Visual Weed Control (%)—21 DAA BRAPP Obs (BRAPP) | Visual Weed Control (%)—21 DAA CYPIR Obs (CYPIR; r45 ester 8 g ae/ha alone, r46-48 hexaconazole 25/50/100 g ai/ha alone, r49-51 ester 8 + 25/50/100) | Visual Weed Control (%)—21 DAA ECHCO Obs (ECHCO) | Visual Weed Control (%)—21 DAA IPOHE Obs (IPOHE) | Visual Weed Control (%)—21 DAA LEFCH Obs (LEFCH; r9-11 ester 8/16/32 g ae/ha alone, r12-14 hexaconazole 25/50/100 g ai/ha alone, r15-23 ester 8/16/32 at each of 25, 50, 100)

CC(C)OC(=O)C(C(=O)OC(C)C)=C1SCCS1 [Isoprothiolane, diisopropyl 1,3-dithiolan-2-ylidenemalonate, reference compound]
0%: Visual Weed Control (%) - 21 DAA CYPES Obs (CYPES) | Visual Weed Control (%) - 21 DAA CYPIR Obs (CYPIR; r26-27 ester 16/32 g ae/ha alone, r28-29 isoprothiolane 266/533 g ai/ha alone, r30-33 ester 16/32 at each of 266, 533) | Visual Weed Control (%) - 21 DAA LEFCH Obs (LEFCH; r10-12 ester 8/16/32 g ae/ha alone, r13-14 isoprothiolane 266/533 g ai/ha alone, r15-20 ester 8/16/32 at each of 266, 533)
